Measured values: patent publication US11053204B2, “Pyrimidinyloxy benzene derivatives as herbicides” (FMC Corporation, priority 2015, dated 2021)

Assays:
Type in all cases: in vivo
[1] = test system: blackgrass (Alopecurus myosuroides); assay: Test C preemergence, plant response rating; conditions: Alopecurus myosuroides, pre-emergence, Preemergence
In short: (§1)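 Visual injury score, 0 = no effect, 100 = complete control, assigned against untreated controls after 13 to 15 d in the greenhouse. Compounds were applied in a surfactant-containing non-phytotoxic solvent mix, preemergence to seeded loam/sand or silt loam soil, or postemergence to 1- to 4-leaf plants (2 to 18 cm).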

corn (Zea mays) = assay: Test C preemergence, plant response rating; conditions: Zea mays, pre-emergence, Preemergence
In short: as §1

[2] = test system: crabgrass, large (large crabgrass, Digitaria sanguinalis); assay: Test C preemergence, plant response rating; conditions: Digitaria sanguinalis, pre-emergence, Preemergence
In short: as §1

[3] = test system: foxtail, giant (giant foxtail, Setaria faberii); assay: Test C preemergence, plant response rating; conditions: Setaria faberi, pre-emergence, Preemergence
In short: as §1

[4] = test system: lambsquarters (Chenopodium album); assay: Test C preemergence, plant response rating; conditions: Chenopodium album, pre-emergence, Preemergence
In short: as §1

[5] = test system: morningglory (Ipomoea coccinea); assay: Test C preemergence, plant response rating; conditions: Ipomoea, pre-emergence, Preemergence
In short: as §1

[6] = test system: nutsedge, yellow (yellow nutsedge, Cyperus esculentus); assay: Test C preemergence, plant response rating; conditions: Cyperus, pre-emergence, Preemergence
In short: as §1

[7] = test system: oilseed rape (Brassica napus); assay: Test C preemergence, plant response rating; conditions: Brassica napus, pre-emergence, Preemergence
In short: as §1

[8] = test system: ragweed (common ragweed, Ambrosia elatior); assay: Test C preemergence, plant response rating; conditions: Ambrosia artemisiifolia, pre-emergence, Preemergence
In short: as §1

[9] = test system: ryegrass, Italian (Italian ryegrass, Lolium multiflorum); assay: Test C preemergence, plant response rating; conditions: Lolium multiflorum, pre-emergence, Preemergence
In short: as §1

soybean (Glycine max) = assay: Test C preemergence, plant response rating; conditions: Glycine max, pre-emergence, Preemergence
In short: as §1

[10] = test system: velvetleaf (Abutilon theophrasti); assay: Test C preemergence, plant response rating; conditions: Abutilon theophrasti, pre-emergence, Preemergence
In short: as §1

[11] = test system: waterhemp (common waterhemp, Amaranthus rudis); assay: Test C preemergence, plant response rating; conditions: Amaranthus tuberculatus, pre-emergence, Preemergence
In short: as §1

[12] = test system: wheat (winter wheat, Triticum aestivum); assay: Test C preemergence, plant response rating; conditions: Triticum aestivum, pre-emergence, Preemergence
In short: as §1

[13] = test system: barnyardgrass (Echinochloa crus-galli); assay: Test C postemergence, plant response rating; conditions: Echinochloa crus-galli, post-emergence
In short: as §1

[14] = test system: blackgrass (Alopecurus myosuroides); assay: Test C postemergence, plant response rating; conditions: Alopecurus myosuroides, post-emergence
In short: as §1

[15] = test system: foxtail, giant (giant foxtail, Setaria faberii); assay: Test C postemergence, plant response rating; conditions: Setaria faberi, post-emergence
In short: as §1

[16] = test system: morningglory (Ipomoea coccinea); assay: Test C postemergence, plant response rating; conditions: Ipomoea, post-emergence
In short: as §1

[17] = test system: oilseed rape (Brassica napus); assay: Test C postemergence, plant response rating; conditions: Brassica napus, post-emergence
In short: as §1

[18] = test system: velvetleaf (Abutilon theophrasti); assay: Test C postemergence, plant response rating; conditions: Abutilon theophrasti, post-emergence
In short: as §1

[19] = test system: wheat (winter wheat, Triticum aestivum); assay: Test C postemergence, plant response rating; conditions: Triticum aestivum, post-emergence
In short: as §1

[20] = 62 g ai/ha, scale 0 to 100 (0 no effect, 100 complete control)
[21] = 125 g ai/ha, scale 0 to 100 (0 no effect, 100 complete control)

With C=CCCOC(=O)c1c(Br)cccc1Oc1ncc(Cl)cn1 [Compound 21, 3-buten-1-yl 2-bromo-6-[(5-chloro-2-pyrimidinyl)oxy]benzoate] the pest or weed control at 62 g/ha ([1]; 62 g ai/ha, scale of 0 to 100) was 55%, the pest or weed control at 125 g/ha ([1]; 125 g ai/ha, scale of 0 to 100) was 90% and the pest or weed control at 16 g/ha ([1]; 16 g ai/ha, scale 0 to 100) was 5%. For the same molecule, the pest or weed control at 31 g/ha ([1]; 31 g ai/ha, scale 0 to 100) was 35%, the Corn plant response rating (crop injury, 0 = no effect, 100 = complete kill) at 62 g/ha (corn (Zea mays); 62 g ai/ha, scale of 0 to 100) was 5% and the Corn plant response rating (crop injury, 0 = no effect, 100 = complete kill) at 125 g/ha (corn (Zea mays); 125 g ai/ha, scale of 0 to 100) was 20%. The Corn plant response rating (crop injury, 0 = no effect, 100 = complete kill) at 16 g/ha (corn (Zea mays); 16 g ai/ha, scale 0 to 100) was 0%, the Corn plant response rating (crop injury, 0 = no effect, 100 = complete kill) at 31 g/ha (corn (Zea mays); 31 g ai/ha, scale 0 to 100) was 0% and the pest or weed control at 62 g/ha ([2]; 62 g ai/ha, scale of 0 to 100) was 98%. For the same molecule, the pest or weed control at 125 g/ha ([2]; 125 g ai/ha, scale of 0 to 100) was 100%, the pest or weed control at 16 g/ha ([2]; 16 g ai/ha, scale 0 to 100) was 20% and the pest or weed control at 31 g/ha ([2]; 31 g ai/ha, scale 0 to 100) was 75%. The pest or weed control at 62 g/ha ([3]; 62 g ai/ha, scale of 0 to 100) was 95%, the pest or weed control at 125 g/ha ([3]; 125 g ai/ha, scale of 0 to 100) was 90% and the pest or weed control at 16 g/ha ([3]; 16 g ai/ha, scale 0 to 100) was 20%. It also gave a pest or weed control at 31 g/ha ([3]; 31 g ai/ha, scale 0 to 100) of 80%, a pest or weed control at 125 g/ha ([4]; 125 g ai/ha, scale of 0 to 100) of 70% and a pest or weed control at 16 g/ha ([4]; 16 g ai/ha, scale 0 to 100) of 0%. For the same molecule, the pest or weed control at 31 g/ha ([4]; 31 g ai/ha, scale 0 to 100) was 30%, the pest or weed control at 62 g/ha ([4]; 62 g ai/ha, scale 0 to 100) was 25% and the pest or weed control at 125 g/ha ([5]; 125 g ai/ha, scale of 0 to 100) was 10%. For the same molecule, the pest or weed control at 16 g/ha ([5]; 16 g ai/ha, scale 0 to 100) was 0%, the pest or weed control at 31 g/ha ([5]; 31 g ai/ha, scale 0 to 100) was 0% and the pest or weed control at 62 g/ha ([5]; 62 g ai/ha, scale 0 to 100) was 5%. It also gave a pest or weed control at 125 g/ha ([6]; 125 g ai/ha, scale of 0 to 100) of 0%, a pest or weed control at 16 g/ha ([6]; 16 g ai/ha, scale 0 to 100) of 0% and a pest or weed control at 31 g/ha ([6]; 31 g ai/ha, scale 0 to 100) of 0%. The pest or weed control at 62 g/ha ([6]; 62 g ai/ha, scale 0 to 100) was 0%, the plant injury at 125 g/ha ([7]; 125 g ai/ha, scale of 0 to 100) was 100% and the plant injury at 16 g/ha ([7]; 16 g ai/ha, scale 0 to 100) was 0%. It also gave a plant injury at 31 g/ha ([7]; 31 g ai/ha, scale 0 to 100) of 0%, a plant injury at 62 g/ha ([7]; 62 g ai/ha, scale 0 to 100) of 75% and a pest or weed control at 125 g/ha ([8]; 125 g ai/ha, scale of 0 to 100) of 0%. It also gave a pest or weed control at 16 g/ha ([8]; 16 g ai/ha, scale 0 to 100) of 0%, a pest or weed control at 31 g/ha ([8]; 31 g ai/ha, scale 0 to 100) of 0% and a pest or weed control at 62 g/ha ([8]; 62 g ai/ha, scale 0 to 100) of 0%. The pest or weed control at 125 g/ha ([9]; 125 g ai/ha, scale of 0 to 100) was 90%, the pest or weed control at 16 g/ha ([9]; 16 g ai/ha, scale 0 to 100) was 0% and the pest or weed control at 31 g/ha ([9]; 31 g ai/ha, scale 0 to 100) was 10%. The pest or weed control at 62 g/ha ([9]; 62 g ai/ha, scale 0 to 100) was 15%, the plant injury at 125 g/ha (soybean (Glycine max); 125 g ai/ha, scale of 0 to 100) was 0% and the plant injury at 16 g/ha (soybean (Glycine max); 16 g ai/ha, scale 0 to 100) was 0%. For the same molecule, the plant injury at 31 g/ha (soybean (Glycine max); 31 g ai/ha, scale 0 to 100) was 0%, the plant injury at 62 g/ha (soybean (Glycine max); 62 g ai/ha, scale 0 to 100) was 0% and the pest or weed control at 125 g/ha ([10]; 125 g ai/ha, scale of 0 to 100) was 100%. For the same molecule, the pest or weed control at 16 g/ha ([10]; 16 g ai/ha, scale 0 to 100) was 10%, the pest or weed control at 31 g/ha ([10]; 31 g ai/ha, scale 0 to 100) was 40% and the pest or weed control at 62 g/ha ([10]; 62 g ai/ha, scale 0 to 100) was 70%. It also gave a pest or weed control at 125 g/ha ([11]; 125 g ai/ha, scale of 0 to 100) of 98%, a pest or weed control at 16 g/ha ([11]; 16 g ai/ha, scale 0 to 100) of 70% and a pest or weed control at 31 g/ha ([11]; 31 g ai/ha, scale 0 to 100) of 75%. The pest or weed control at 62 g/ha ([11]; 62 g ai/ha, scale 0 to 100) was 95%, the plant injury at 125 g/ha ([12]; 125 g ai/ha, scale of 0 to 100) was 0% and the plant injury at 16 g/ha ([12]; 16 g ai/ha, scale 0 to 100) was 0%. The plant injury at 31 g/ha ([12]; 31 g ai/ha, scale 0 to 100) was 0%, the plant injury at 62 g/ha ([12]; 62 g ai/ha, scale 0 to 100) was 0% and the pest or weed control at 16 g/ha ([13]; 16 g ai/ha, scale 0 to 100) was 10%. The pest or weed control at 31 g/ha ([13]; 31 g ai/ha, scale 0 to 100) was 10%, the pest or weed control at 62 g/ha [13, 20] was 20% and the pest or weed control at 125 g/ha [13, 21] was 20%. The pest or weed control at 16 g/ha ([14]; 16 g ai/ha, scale 0 to 100) was 0%, the pest or weed control at 31 g/ha ([14]; 31 g ai/ha, scale 0 to 100) was 0% and the pest or weed control at 62 g/ha [14, 20] was 5%. It also gave a pest or weed control at 125 g/ha [14, 21] of 5%, a pest or weed control at 16 g/ha ([15]; 16 g ai/ha, scale 0 to 100) of 10% and a pest or weed control at 31 g/ha ([15]; 31 g ai/ha, scale 0 to 100) of 10%. For the same molecule, the pest or weed control at 62 g/ha [15, 20] was 20%, the pest or weed control at 125 g/ha [15, 21] was 15% and the pest or weed control at 16 g/ha ([16]; 16 g ai/ha, scale 0 to 100) was 10%. It also gave a pest or weed control at 31 g/ha ([16]; 31 g ai/ha, scale 0 to 100) of 25%, a pest or weed control at 62 g/ha [16, 20] of 40% and a pest or weed control at 125 g/ha [16, 21] of 70%. For the same molecule, the plant injury at 16 g/ha ([17]; 16 g ai/ha, scale 0 to 100) was 30%, the plant injury at 31 g/ha ([17]; 31 g ai/ha, scale 0 to 100) was 40% and the plant injury at 62 g/ha [17, 20] was 50%. It also gave a plant injury at 125 g/ha [17, 21] of 30%, a pest or weed control at 16 g/ha ([18]; 16 g ai/ha, scale 0 to 100) of 40% and a pest or weed control at 31 g/ha ([18]; 31 g ai/ha, scale 0 to 100) of 60%. For the same molecule, the pest or weed control at 62 g/ha ([18]; 62 g ai/ha, scale 0 to 100 (0 no effect, 100 complete control), read-out: Velvetleaf plant response rating) was 60%, the pest or weed control at 125 g/ha [18, 21] was 70% and the plant injury at 16 g/ha ([19]; 16 g ai/ha, scale 0 to 100) was 0%. It also gave a plant injury at 31 g/ha ([19]; 31 g ai/ha, scale 0 to 100) of 0%, a plant injury at 62 g/ha ([19]; 62 g ai/ha, scale 0 to 100 (0 no effect, 100 complete control), read-out: Wheat plant response rating) of 0% and a plant injury at 125 g/ha [19, 21] of 0%.
